Target: GR (Homo sapiens (Human), UniProt P04150)
Assay: In Vitro GR Luciferase Reporter Assay
Format: cell-based
Settings: CHO-K1-GR-MMTV-Luc reporter cells, antagonist assay, 10 nM Dexamethasone, 18-24 hours
Text: Example 4: In Vitro GR Luciferase Reporter Assay
Cell Line: CHO-K1-GR-MMTV-Luc reporter cells
Culture Media: DMEM (with phenol red)+10% FBS
Assay Media: DMEM (without phenol red)+10% CSS
Culture CHO-K1-GR-MMTV-Luc reporter cells in 15 cm plates in Culture Media at conditions less than 90% confluence.
Prepare 200×DMSO 1:5 serial dilutions of control and test compounds in 96-well non-sterile V bottom plate in DMSO, 8 serial dilutions for each compound.
Prepare 5× Assay Media diluted compound serial dilutions in 96-well non-sterile V bottom plate: Add 97.5 uL/well of Assay Media into 96-well then add 2.5 ul of 200× concentration of compounds and mix well.
Seed cells for Antagonist Assay: […] CHO-K1-GR-MMTV-Luc reporter cells were seeded in a Corning 3707 flat clear bottom 384-well white TC plate in 20 ul of Assay Media containing 12.5 nM Dexamethasone (final concentration=10 nM).
Add compounds: 5 ul of assay media diluted compounds were added to appropriate wells and followed a quick spin (1000 rpm, 10 sec) to bring media and cells to the bottom of plate. The plates were covered with SealMate film to avoid evaporation and placed in 37° C. incubator for approximately 18-24 hours.
Read plates: Equilibrate appropriate amount of Promega OneGlo luciferase reagent to room temperature. Remove the plates from incubator and add 25 uL of OneGlo reagent/well by multiple channel pipette and read the plates with Tecan F500 luminometer within 3 minutes.
The ability of the compounds disclosed herein to inhibit GR activity was quantified and the respective IC50 value was determined. Table 3 provides the cellular IC50 values of various substituted steroidal compounds disclosed herein.

Sequence of GR (P04150 whole entry): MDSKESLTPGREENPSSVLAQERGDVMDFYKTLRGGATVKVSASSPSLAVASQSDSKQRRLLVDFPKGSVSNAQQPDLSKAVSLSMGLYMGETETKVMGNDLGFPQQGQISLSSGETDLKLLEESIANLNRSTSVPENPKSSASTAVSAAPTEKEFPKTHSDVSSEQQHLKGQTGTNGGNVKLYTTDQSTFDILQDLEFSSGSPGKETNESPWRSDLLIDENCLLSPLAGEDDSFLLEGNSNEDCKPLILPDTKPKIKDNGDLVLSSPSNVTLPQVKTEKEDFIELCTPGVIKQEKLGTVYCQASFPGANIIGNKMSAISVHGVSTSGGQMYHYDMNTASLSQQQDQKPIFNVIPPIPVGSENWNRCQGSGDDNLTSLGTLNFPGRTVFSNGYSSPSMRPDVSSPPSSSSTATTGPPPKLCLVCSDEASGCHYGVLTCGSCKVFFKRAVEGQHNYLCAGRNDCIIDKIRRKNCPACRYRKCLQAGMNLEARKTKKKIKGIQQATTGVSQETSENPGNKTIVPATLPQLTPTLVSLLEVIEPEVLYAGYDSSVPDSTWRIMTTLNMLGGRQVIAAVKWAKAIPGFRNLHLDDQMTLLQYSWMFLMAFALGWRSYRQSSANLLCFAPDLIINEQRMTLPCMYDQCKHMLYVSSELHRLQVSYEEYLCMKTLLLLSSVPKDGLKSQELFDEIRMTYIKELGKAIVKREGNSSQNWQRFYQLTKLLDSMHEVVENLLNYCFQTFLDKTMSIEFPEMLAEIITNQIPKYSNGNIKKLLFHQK

Compound	IC50
CN(C)c1ccc([C@H]2C[C@@]3(C)[C@@H](CC[C@@]3(O)C#Cc3ccccn3)[C@@H]3CCC4=CC(=O)CCC4=C32)cc1	≤ 100 nM
CN(C)c1ccc([C@H]2C[C@@]3(C)[C@@H](CC[C@@]3(O)C#Cc3ccc(Cl)cc3)[C@@H]3CCC4=CC(=O)CCC4=C32)cc1	≤ 100 nM
[2H]C([2H])([2H])N(c1ccc([C@H]2C[C@@]3(C)[C@@H](CC[C@@]3(O)C#CC(C)(C)C)[C@@H]3CCC4=CC(=O)CCC4=C32)cc1)C([2H])([2H])[2H]	≤ 100 nM
CC(C)C#C[C@]1(O)CC[C@H]2[C@@H]3CCC4=CC(=O)CCC4=C3[C@@H](c3ccc4c(c3)OCCO4)C[C@@]21C	≤ 100 nM
C[C@]12C[C@H](c3ccc4c(c3)OCO4)C3=C4CCC(=O)C=C4CC[C@H]3[C@@H]1CC[C@@]2(O)C#Cc1ccc(S(C)(=O)=O)cc1	≤ 100 nM
C[C@]12C[C@H](c3ccc4c(c3)OCO4)C3=C4CCC(=O)C=C4CC[C@H]3[C@@H]1CC[C@@]2(O)C#CC(F)(F)F	≤ 100 nM
C[C@]12C[C@H](c3ccc4c(c3)OCCO4)C3=C4CCC(=O)C=C4CC[C@H]3[C@@H]1CC[C@@]2(O)C#CC1CC1	≤ 100 nM
CC(C)(C)C#C[C@]1(O)CC[C@H]2[C@@H]3CCC4=CC(=O)CCC4=C3[C@@H](c3ccc4c(c3)OCCO4)C[C@@]21C	≤ 100 nM
C[C@]12C[C@H](c3ccc4c(c3)OCCO4)C3=C4CCC(=O)C=C4CC[C@H]3[C@@H]1CC[C@@]2(O)C#CC(F)(F)F	≤ 100 nM
C[C@]12C[C@H](c3ccc4c(c3)OCO4)C3=C4CCC(=O)C=C4CC[C@H]3[C@@H]1CC[C@@]2(O)C#CC1CC1	≤ 100 nM
CC(C)C#C[C@]1(O)CC[C@H]2[C@@H]3CCC4=CC(=O)CCC4=C3[C@@H](c3ccc4c(c3)OCO4)C[C@@]21C	≤ 100 nM
CC(C)c1ccc([C@H]2C[C@@]3(C)[C@@H](C[C@@H](C)[C@@]3(O)C#CC(C)(C)C)[C@@H]3CCC4=CC(=O)CCC4=C32)cc1	> 100 nM
COC(C)(C)C#C[C@]1(O)CC[C@H]2[C@@H]3CCC4=CC(=O)CCC4=C3[C@@H](c3ccc(N(C)C)cc3)C[C@@]21C	≤ 100 nM
[2H]C([2H])([2H])C#C[C@]1(O)CC[C@H]2[C@@H]3CCC4=CC(=O)CCC4=C3[C@@H](c3cc(F)c(C)c(F)c3)C[C@@]21C	≤ 100 nM
COC(C)(C)C#C[C@]1(O)CC[C@H]2[C@@H]3CCC4=CC(=O)CCC4=C3[C@@H](c3ccc(N(C)CC(F)(F)F)cc3)C[C@@]21C	≤ 100 nM
COCCN(C)c1ccc([C@H]2C[C@@]3(C)[C@@H](CC[C@@]3(O)C#CC(C)(C)OC)[C@@H]3CCC4=CC(=O)CCC4=C32)cc1	≤ 100 nM
CN(C)c1ccc([C@H]2C[C@@]3(C)[C@@H](CC[C@@]3(O)C#Cc3ccccc3)[C@@H]3CCC4=CC(=O)CCC4=C32)cc1 [drawing 266]	≤ 100 nM
Cc1cc([C@H]2C[C@@]3(C)[C@@H](CC[C@@]3(O)C#CC(C)(C)C)[C@@H]3CCC4=CC(=O)CCC4=C32)ccc1N(C)C [drawing 283]	≤ 100 nM
CN(C)c1ccc([C@H]2C[C@@]3(C)[C@@H](CC[C@@]3(O)C#CC(C)(C)C)[C@@H]3CCC4=CC(=O)CCC4=C32)cc1F [drawing 284]	≤ 100 nM
Cc1c(F)cc([C@H]2C[C@@]3(C)[C@@H](CC[C@@]3(O)C#Cc3ccc(S(C)(=O)=O)cc3)[C@@H]3CCC4=CC(=O)CCC4=C32)cc1F [drawing 293]	≤ 100 nM
CC(C)C#C[C@]1(O)CC[C@H]2[C@@H]3CCC4=CC(=O)CCC4=C3[C@@H](c3c(F)cc(N4CCOCC4)cc3F)C[C@@]21C [drawing 294]	≤ 100 nM
CC(C)C#C[C@]1(O)CC[C@H]2[C@@H]3CCC4=CC(=O)CCC4=C3[C@@H](c3cc(F)c(C(C)C)c(F)c3)C[C@@]21C [drawing 299]	≤ 100 nM
CN(C)c1ccc([C@H]2C[C@@]3(C)[C@@H](CC[C@@]3(O)C#CC3CC3)[C@@H]3CCC4=CC(=O)CCC4=C32)c(F)c1F [drawing 303]	≤ 100 nM
CN(C)c1cc(F)c([C@H]2C[C@@]3(C)[C@@H](CC[C@@]3(O)C#CC(C)(C)C)[C@@H]3CCC4=CC(=O)CCC4=C32)cc1F [drawing 304]	≤ 100 nM
CCC#C[C@]1(O)CC[C@H]2[C@@H]3CCC4=CC(=O)CCC4=C3[C@@H](c3ccc4c(c3)OCCO4)C[C@@]21C [drawing 324]	≤ 100 nM
CC(C)(C)C#C[C@]1(O)CC[C@H]2[C@@H]3CCC4=CC(=O)CCC4=C3[C@@H](c3ccc4c(c3)OCO4)C[C@@]21C [drawing 331]	≤ 100 nM
C[C@@H]1C[C@H]2[C@@H]3CCC4=CC(=O)CCC4=C3[C@@H](c3ccc(N(C)C)cc3)C[C@]2(C)[C@]1(O)C#CC(C)(C)C [drawing 335]	> 100 nM
CN(C)c1ccc([C@H]2C[C@@]3(C)[C@@H](CC[C@@]3(O)C#Cc3ccc(S(C)(=O)=O)cc3)[C@@H]3CCC4=CC(=O)CCC4=C32)cc1 [drawing 352]	≤ 100 nM
CN(C)c1ccc([C@H]2C[C@@]3(C)[C@@H](CC[C@@]3(O)C#CC3(C)COC3)[C@@H]3CCC4=CC(=O)CCC4=C32)cc1 [drawing 354]	≤ 100 nM

Results, then the molecule that gave them:

IC50	Compound
≤ 100 nM	CN(C)c1ccc([C@H]2C[C@@]3(C)[C@@H](CC[C@@]3(O)C#CC(C)(C)C)[C@@H]3CCC4=CC(=O)CCC4=C32)cc1
> 100 nM	CN(C(=O)CO)c1ccc([C@H]2C[C@@]3(C)[C@@H](CC[C@@]3(O)C#CC(C)(C)C)[C@@H]3CCC4=CC(=O)CCC4=C32)cc1
≤ 100 nM	CC(C)(C)C#C[C@]1(O)CC[C@H]2[C@@H]3CCC4=CC(=O)CCC4=C3[C@@H](c3ccc(N4CCS(=O)(=O)CC4)cc3)C[C@@]21C
≤ 100 nM	COCCN(C)c1ccc([C@H]2C[C@@]3(C)[C@@H](CC[C@@]3(O)C#CC(C)(C)C)[C@@H]3CCC4=CC(=O)CCC4=C32)cc1
≤ 100 nM	CN(CC(F)(F)F)c1ccc([C@H]2C[C@@]3(C)[C@@H](CC[C@@]3(O)C#CC(C)(C)C)[C@@H]3CCC4=CC(=O)CCC4=C32)cc1
≤ 100 nM	CC(C)(C)C#C[C@]1(O)CC[C@H]2[C@@H]3CCC4=CC(=O)CCC4=C3[C@@H](c3ccc(N4CCN(C(=O)CO)CC4)cc3)C[C@@]21C
> 100 nM	COC(C)(C)C#C[C@]1(O)CC[C@H]2[C@@H]3CCC4=CC(=O)CCC4=C3[C@@H](c3ccc(N4CCN(C(=O)CO)CC4)cc3)C[C@@]21C
> 100 nM	COC1CN(c2ccc([C@H]3C[C@@]4(C)[C@@H](CC[C@@]4(O)C#CC(C)(C)OC)[C@@H]4CCC5=CC(=O)CCC5=C43)cc2)C1
≤ 100 nM	CC(=O)N1CCN(c2ccc([C@H]3C[C@@]4(C)[C@@H](CC[C@@]4(O)C#CC(C)(C)C)[C@@H]4CCC5=CC(=O)CCC5=C43)cc2)CC1
> 100 nM	COC(C)(C)C#C[C@]1(O)CC[C@H]2[C@@H]3CCC4=CC(=O)CCC4=C3[C@@H](c3ccc(N4CCS(=O)(=O)CC4)cc3)C[C@@]21C
≤ 100 nM	CC(C)(C)C#C[C@]1(O)CC[C@H]2[C@@H]3CCC4=CC(=O)CCC4=C3[C@@H](c3ccc(C(C)(CO)CO)cc3)C[C@@]21C
≤ 100 nM	CC(C)(C)C#C[C@]1(O)CC[C@H]2[C@@H]3CCC4=CC(=O)CCC4=C3[C@@H](c3ccc(C4(C)COC4)cc3)C[C@@]21C
≤ 100 nM	CC(C)(C)C#C[C@]1(O)CC[C@H]2[C@@H]3CCC4=CC(=O)CCC4=C3[C@@H](c3ccc(C(C)(C)C)cc3)C[C@@]21C [drawing 268]
≤ 100 nM	CC(C)(C)C#C[C@]1(O)CC[C@H]2[C@@H]3CCC4=CC(=O)CCC4=C3[C@@H](c3ccc(N4CCCC4)cc3)C[C@@]21C [drawing 276]
> 100 nM	CC(C)(C)C#C[C@]1(O)CC[C@H]2[C@@H]3CCC4=CC(=O)CCC4=C3[C@@H](c3cccc(C4CC4)c3)C[C@@]21C [drawing 279]
≤ 100 nM	COC(C)(C)C#C[C@]1(O)CC[C@H]2[C@@H]3CCC4=CC(=O)CCC4=C3[C@@H](c3ccc(N4CCCC4)cc3)C[C@@]21C [drawing 340]
≤ 100 nM	COC1CN(c2ccc([C@H]3C[C@@]4(C)[C@@H](CC[C@@]4(O)C#CC(C)(C)C)[C@@H]4CCC5=CC(=O)CCC5=C43)cc2)C1 [drawing 341]
≤ 100 nM	CC(C)(C)C#C[C@]1(O)CC[C@H]2[C@@H]3CCC4=CC(=O)CCC4=C3[C@@H](c3ccc(N4CCN(S(C)(=O)=O)CC4)cc3)C[C@@]21C [drawing 346]
≤ 100 nM	CC(C)(C)C#C[C@]1(O)CC[C@H]2[C@@H]3CCC4=CC(=O)CCC4=C3[C@@H](c3ccc(N4CCC[C@@H]4CO)cc3)C[C@@]21C [drawing 364]

Reference: patent US11124537B2, “Inhibitors of glucocorticoid receptor” (ORIC Pharmaceuticals, Inc., priority 2015, dated 2021)
